Assay results reported in patent publication US8067015B2, “Methods and compositions for the treatment and prevention of Staphylococcus and other bacterial infections” (priority 1997, dated 2011).

Columns and labels:
Assay type in all cases: in vivo
[1] = system: S. epidermidis GISE strain; test: Rat subcutaneous Dacron graft infection model, GISE strain; details: rats; for Bacterial concentration, GISE: 2×10^7 bacteria, explanted day 7, mean ± SD
Method: (§1) Rats (Wistar adult males (300-350 g), n=15/experimental group) were anaesthetized, hair on their back shaved and the skin cleansed with 10% povidone-iodine solution. A subcutaneous pocket was made on the side of the median line by a 1.5 cm incision. Aseptically, 1 cm^2 sterile collagen-sealed Dacron graft (Albograft™, Sorin Biomedica Cardio, S.p.A., Saluggi VC, Italy) was implanted into the pocket. […] Pockets were closed by skin clips and 1 ml sterile saline solution with or without 2×10^7 bacteria was inoculated onto the graft surface using a tuberculin syringe to create a subcutaneous fluid-filled pocket. Some of the animals that had grafts soaked only with RIP or saline were injected intraperitoneally with antibiotics (cefazolin 30 mg/kg, imipenem 30 mg/kg, teicoplanin 10 mg/kg, levofloxacin 10 mg/kg). Grafts were explanted 7 days following implantation.
(§2) The explanted grafts were placed in sterile tubes, washed in sterile saline solution, placed in tubes containing 10 ml of phosphate-buffered saline solution and sonicated for 5 min to remove the adherent bacteria from the grafts. Quantitation of viable bacteria was performed by culturing serial 10-fold dilutions (0.1 ml) of the bacterial suspension on blood agar plates. All plates were incubated at 37° C. for 48 hr and evaluated for the presence of the strain. Bacteria were quantitated by counting the number of colony forming unites (CFU) per plate. To determine if bacteria were efficiently removed from the graft, washed and sonicated grafts were observed under a Nikon Eclipse E 600 optical microscope (Nikon Y-THS, Japan).
(§3) Quantitative culture results of the in vivo experiments were presented as mean+SD of the mean. Comparisons of the results were performed by the analysis of variance (ANOVA) on the log-transformed data. Statistical analysis was performed for in vitro adhesion assays using Student's t-Test by Microsoft Excel (Microsoft, Wash.). Significance was accepted when the P value was <0.05.
(§4) To test if RIP can prevent graft-associated infections, Dacron grafts were coated with or without RIP, and with or without various types of antibiotics (for local prophylaxis experiments). Coated grafts were implanted in rats, bacteria injected into the implants, implants removed after a week, and bacterial load determined. Alternatively, Dacron grafts were first coated with RIP, bacteria injected, and antibiotics were administered by the intraperitoneal route (for parenteral prophylaxis experiments). As a negative control, grafts were implanted without local or parenteral RIP/antibiotics prophylaxis and no bacteria were injected. As a positive control, grafts were implanted, bacteria were injected, but no RIP/antibiotics prophylaxis was given.
(§5) Animals (15/group) received a Dacron-graft implanted in a subcutaneous pocket. Graft was subsequently infected with either S. epidermidis (tested on MSSE, MRSE and GISE) or with S. aureus (tested on MSSA, MRSA and GISA). […]

[2] = system: S. epidermidis MRSE strain; test: Rat subcutaneous Dacron graft infection model, MRSE strain; details: rats; for Bacterial concentration, MRSE: 2×10^7 bacteria, explanted day 7, mean ± SD
Method: as §1, §2, §3, §4
Animals (15/group) received a Dacron-graft implanted in a subcutaneous pocket. Graft was subsequently infected with either S. epidermidis (tested on MSSE, MRSE and GISE) or with S. aureus (tested on MSSA, MRSA and GISA). The Dacron-graft prior to implantation was soaked in saline with or without 20 mg/l of RIP and some animals received […] of RIP i.p. as a prophylaxis treatment.

[3] = system: S. epidermidis MSSE strain; test: Rat subcutaneous Dacron graft infection model, MSSE strain; details: rats; for Bacterial concentration, MSSE: 2×10^7 bacteria, explanted day 7, mean ± SD
Method: as §1, §2, §3, §4, §5

[4] = B. Parenteral prophylaxis: antibiotic intraperitoneally (cefazolin 30, imipenem 30, teicoplanin 10, levofloxacin 10 mg/kg), RIP as 10 mg/l graft soak
[5] = A. Local prophylaxis: graft soaked 20 min in RIP 10 mg/l and/or antibiotic (mupirocin 100, quinupristin-dalfopristin 50, levofloxacin 30, rifampin 5 mg/l)
[6] = peptide-soaked/coated Dacron graft (RIP 10 mg/l), no antibiotic, day 7

| Compound | Bacterial concentration, GISE [1, 4] | Bacterial concentration, MRSE [2, 4] | Bacterial concentration, MSSE [3, 4] | Bacterial concentration, GISE [1, 5] | Bacterial concentration, MRSE [2, 5] | Bacterial concentration, MSSE [3, 5] | Quantitative culture results of explanted graft, GISE strain [1, 6] | Quantitative culture results of explanted graft, MRSE strain [2, 6] | Quantitative culture results of explanted graft, MSSE strain [3, 6] |
| --- | --- | --- | --- | --- | --- | --- | --- | --- | --- |
| C[C@@H](O)[C@H]1C(=O)N2C(C(=O)O)=C(SCCN=CN)C[C@H]12 [Imipenem, imipenem] | 89 ± 36 ×10^4 CFU/ml | 4 ± 1.8 ×10^4 CFU/ml | 0.73 ± 0.2 ×10^4 CFU/ml | – | – | – | – | – | – |
| CO[C@H]1/C=C/O[C@@]2(C)Oc3c(C)c(O)c4c(O)c(c(/C=N/N5CCN(C)CC5)c(O)c4c3C2=O)NC(=O)/C(C)=C\C=C\[C@H](C)[C@H](O)[C@@H](C)[C@@H](O)[C@@H](C)[C@H](OC(C)=O)[C@@H]1C [Rifampicin, rifampin] | – | – | – | 84 ± 27 ×10^4 CFU/ml | 0.8 ± 0.37 ×10^4 CFU/ml | 0.73 ± 0.2 ×10^4 CFU/ml | – | – | – |
| YKPETNF [inactive RIP peptide analogue] | – | – | – | – | – | – | 6.52×10^6±3×10^6 CFU/ml | 7.08×10^6±2.1×10^6 CFU/ml | 5.4×10^6±8×10^5 CFU/ml |
| C/C(=C\C(=O)OCCCCCCCCC(=O)O)C[C@@H]1OC[C@H](C[C@@H]2O[C@H]2[C@@H](C)[C@H](C)O)[C@@H](O)[C@H]1O [Mupirocin, mupirocin] | – | – | – | 0.07 ± 0.018 ×10^4 CFU/ml | 0.035 ± 0.014 ×10^4 CFU/ml | 0.064 ± 0.015 ×10^4 CFU/ml | – | – | – |
| Cc1nnc(SCC2=C(C(=O)O)N3C(=O)[C@@H](NC(=O)Cn4cnnn4)[C@H]3SC2)s1 [Cefazolin, cefazolin] | 590 ± 200 ×10^4 CFU/ml | 370 ± 120 ×10^4 CFU/ml | 0.64 ± 0.19 ×10^4 CFU/ml | – | – | – | – | – | – |
| quinupristin-dalfopristin | – | – | – | 0.0069 ± 0.0013 ×10^4 CFU/ml | 0.0048 ± 0.001 ×10^4 CFU/ml | 0.0026 ± 0.0003 ×10^4 CFU/ml | – | – | – |
| teicoplanin | 57 ± 24 ×10^4 CFU/ml | 0.072 ± 0.008 ×10^4 CFU/ml | 0.0084 ± 0.0004 ×10^4 CFU/ml | – | – | – | – | – | – |
| C[C@H]1COc2c(N3CCN(C)CC3)c(F)cc3c(=O)c(C(=O)O)cn1c23 [Levofloxacin, levofloxacin] | 480 ± 170 ×10^4 CFU/ml | 3.9 ± 1.4 ×10^4 CFU/ml | 3.5 ± 1.1 ×10^4 CFU/ml | 280 ± 40 ×10^4 CFU/ml | 6.8 ± 2.5 ×10^4 CFU/ml | 4.2 ± 2.1 ×10^4 CFU/ml | – | – | – |
